US20110195929A1, “COMPOUNDS FOR THE TREATMENT OF FLAVIVIRAL INFECTIONS” (SUMMIT CORPORATION PLC, priority 2008, published 2011)

How the values were obtained:
β-D-glucosidase = assay: Glycosidase inhibition: β-D-glucosidase; type: biochemical, Almonds (Prunus sp.); details: 1 mg/ml; pH 5.0, 20° C
Description: (§1) Inhibition of the N-linked glycan trimming enzymes alpha-Glucosidases I and II or alpha-Mannosidases I and II are thought to be related to the anti-viral activity of castanospermine (Compound 104) and 1-deoxynojirimycin (Compound 193). […] All enzymes were purchased from Sigma, as were the appropriate p-nitrophenyl substrates. Assays were carried out in microtitre plates. Enzymes were assayed in 0.1M citric acid/0.2M di-sodium hydrogen phosphate (McIlvaine) buffers at the optimum pH for the enzyme. All assays were carried out at 20° C. For screening assays the incubation assay consisted of 10 μl of enzyme solution, 10 μl of inhibitor solution (made up in water at 5 mM) and 50 μl of the appropriate 5 mM p-nitrophenyl substrate (3.57 mM final conc.) made up in McIlvaine buffer at the optimum pH for the enzyme.
(§2) The reactions were stopped with 0.4M glycine (pH 10.4) during the exponential phase of the reaction, which was determined at the beginning of the assay using blanks with water, which were incubated for a range of time periods to measure the reaction rate using 5 mM substrate solution. Endpoint absorbances were read at 405 nm with a Bio-rad microtitre plate reader (Benchmark). Water was substituted for the inhibitors in the blanks.

β-D-galactosidase = assay: Glycosidase inhibition: β-D-galactosidase; type: biochemical, Bovine liver; details: 1 mg/ml; pH 7.3, 20° C
Description: as §1, §2

[1] = system: N-acetyl-β-D-glucosaminidase; assay: Glycosidase inhibition: N-acetyl-β-D-glucosaminidase; type: biochemical, Bovine kidney; details: 1 mg/ml; pH 4.25, 20° C
Description: as §1, §2

Naringinase = assay: Glycosidase inhibition: Naringinase; type: biochemical, Penecillium decumbens; details: 1 mg/ml; pH 4.0, 20° C
Description: as §1, §2

α-D-glucosidase [2] = target: T1, α-D-glucosidase (Oryza sativa subsp. japonica, UniProt Q653V7); assay: Glycosidase inhibition: α-D-glucosidase (rice); type: biochemical, rice (Oryza sativa); details: 1 mg/ml; pH 6.0, 20° C; read-out: % inhibition α-gluc (rice)
T1 construct: purchased Sigma
T1 sequence (Q653V7 34-885): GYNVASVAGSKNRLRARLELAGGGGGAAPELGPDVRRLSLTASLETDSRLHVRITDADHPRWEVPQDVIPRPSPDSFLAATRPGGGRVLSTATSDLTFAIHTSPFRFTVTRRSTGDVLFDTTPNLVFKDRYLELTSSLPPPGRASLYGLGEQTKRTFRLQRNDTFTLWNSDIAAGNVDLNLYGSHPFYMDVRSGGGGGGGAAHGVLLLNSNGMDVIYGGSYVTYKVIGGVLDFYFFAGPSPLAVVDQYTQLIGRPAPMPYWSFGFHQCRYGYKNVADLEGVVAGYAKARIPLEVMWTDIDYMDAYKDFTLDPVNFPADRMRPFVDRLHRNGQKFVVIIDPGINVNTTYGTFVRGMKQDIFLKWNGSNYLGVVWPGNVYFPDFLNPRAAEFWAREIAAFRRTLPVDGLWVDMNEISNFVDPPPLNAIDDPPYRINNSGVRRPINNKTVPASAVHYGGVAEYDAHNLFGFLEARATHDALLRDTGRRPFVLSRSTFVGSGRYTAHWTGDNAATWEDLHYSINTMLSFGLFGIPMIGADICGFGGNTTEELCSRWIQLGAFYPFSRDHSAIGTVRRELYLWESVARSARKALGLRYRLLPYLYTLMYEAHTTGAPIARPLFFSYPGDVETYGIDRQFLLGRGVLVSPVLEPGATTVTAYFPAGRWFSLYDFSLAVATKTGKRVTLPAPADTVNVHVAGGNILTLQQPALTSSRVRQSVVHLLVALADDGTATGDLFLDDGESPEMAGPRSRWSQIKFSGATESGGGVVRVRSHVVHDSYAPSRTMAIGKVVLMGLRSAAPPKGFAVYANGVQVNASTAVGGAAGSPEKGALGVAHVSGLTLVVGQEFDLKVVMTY
Description: as §1, §2

α-D-glucosidase [3] = target: T2, α-D-glucosidase (Saccharomyces cerevisiae, UniProt P53341); assay: Glycosidase inhibition: α-D-glucosidase (yeast); type: biochemical, Saccharomyces cerevisiae (Baker's yeast); details: 1 mg/ml; pH 6.0, 20° C; read-out: % inhibition α-gluc (yeast)
T2 construct: purchased Sigma
T2 sequence (P53341 whole entry): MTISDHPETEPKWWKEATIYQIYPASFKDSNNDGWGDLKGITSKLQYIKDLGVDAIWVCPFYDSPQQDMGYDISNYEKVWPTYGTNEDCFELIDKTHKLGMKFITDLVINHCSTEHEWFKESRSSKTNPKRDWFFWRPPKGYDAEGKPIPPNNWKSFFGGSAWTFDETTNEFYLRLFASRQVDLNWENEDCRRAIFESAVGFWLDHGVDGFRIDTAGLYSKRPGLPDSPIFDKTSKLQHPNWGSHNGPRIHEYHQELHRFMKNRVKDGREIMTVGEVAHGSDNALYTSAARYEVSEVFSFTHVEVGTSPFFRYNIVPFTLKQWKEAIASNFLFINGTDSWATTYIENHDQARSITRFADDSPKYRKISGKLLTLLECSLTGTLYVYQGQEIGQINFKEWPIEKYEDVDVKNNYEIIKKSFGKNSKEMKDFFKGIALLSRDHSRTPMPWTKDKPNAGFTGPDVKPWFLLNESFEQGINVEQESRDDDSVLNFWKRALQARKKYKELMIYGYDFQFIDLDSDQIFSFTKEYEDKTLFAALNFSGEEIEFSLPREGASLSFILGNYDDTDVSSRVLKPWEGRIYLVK
Description: as §1, §2

α-D-mannosidase = target: T3, α-D-mannosidase (Canavalia ensiformis, UniProt C0HJB3); assay: Glycosidase inhibition: α-D-mannosidase; type: biochemical, Jack beans (Canavalia ensiformis); details: 1 mg/ml; pH 4.5, 20° C
T3 construct: purchased Sigma
T3 sequence (C0HJB3 1-981): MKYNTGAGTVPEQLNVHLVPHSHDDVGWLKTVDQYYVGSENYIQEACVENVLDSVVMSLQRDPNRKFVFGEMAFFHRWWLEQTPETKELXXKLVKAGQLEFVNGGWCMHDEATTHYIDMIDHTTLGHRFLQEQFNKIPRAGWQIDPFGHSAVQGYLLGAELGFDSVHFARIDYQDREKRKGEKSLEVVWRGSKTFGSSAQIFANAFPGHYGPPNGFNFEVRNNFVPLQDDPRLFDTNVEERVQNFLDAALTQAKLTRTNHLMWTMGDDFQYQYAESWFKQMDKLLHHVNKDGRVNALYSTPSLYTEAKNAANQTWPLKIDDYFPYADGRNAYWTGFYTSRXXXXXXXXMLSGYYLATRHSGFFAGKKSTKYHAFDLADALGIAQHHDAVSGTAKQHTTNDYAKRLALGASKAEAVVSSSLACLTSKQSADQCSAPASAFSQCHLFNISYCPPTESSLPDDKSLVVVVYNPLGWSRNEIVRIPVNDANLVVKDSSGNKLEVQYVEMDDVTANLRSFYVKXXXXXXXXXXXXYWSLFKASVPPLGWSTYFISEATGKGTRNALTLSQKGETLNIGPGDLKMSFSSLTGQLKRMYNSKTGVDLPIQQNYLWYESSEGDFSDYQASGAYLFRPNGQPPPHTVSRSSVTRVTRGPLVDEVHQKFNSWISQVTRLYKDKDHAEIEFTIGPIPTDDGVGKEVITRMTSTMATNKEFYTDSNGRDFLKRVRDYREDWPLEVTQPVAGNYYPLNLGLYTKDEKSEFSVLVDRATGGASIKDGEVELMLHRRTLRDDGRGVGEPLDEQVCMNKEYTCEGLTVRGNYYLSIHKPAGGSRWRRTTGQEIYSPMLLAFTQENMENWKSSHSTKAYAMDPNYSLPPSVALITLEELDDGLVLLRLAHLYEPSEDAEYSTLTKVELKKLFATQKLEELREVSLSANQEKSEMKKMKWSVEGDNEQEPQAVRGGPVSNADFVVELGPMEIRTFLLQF
Description: as §1, §2

HCV = assay: Cell-based HCV infection NS3 protease FRET assay in DMSO-Huh7 cells; set-up: species or system hepatitis C virus (HCV); details: DMSO-Huh7 cells infected with HCV at 0.05 ffu/cell; HCV NS3 protein levels by FRET, day 6 p.i.

SMILES: O[C@H]1[C@H](O)[C@@H](O)CN2CC[C@H](O)[C@H]12 [Compound 104, Castanospermine, reference compound]
- % inhibition β-glucosidase (β-D-glucosidase): 88%
- % inhibition β-galactosidase (β-D-galactosidase): 16%
- % inhibition N-acetyl-β-gluc [1]: 0%
- % inhibition Naringinase (Naringinase): 39%
- inhibition at 1000 µg/mL (α-D-glucosidase [2]): 90%
- inhibition at 1000 µg/mL (α-D-glucosidase [3]): 0%
- inhibition at 1000 µg/mL (α-D-mannosidase): 0%

SMILES: CC[C@@H]1N[C@@H](CO)[C@H](O)[C@@H](O)[C@@H]1O [Compound 23, (2S,3R,4S,5S,6S)-2-ethyl-6-(hydroxymethyl)piperidine-3,4,5-triol]
- % inhibition β-glucosidase (β-D-glucosidase): 28%
- % inhibition β-galactosidase (β-D-galactosidase): 53%
- % inhibition N-acetyl-β-gluc [1]: 0%
- % inhibition Naringinase (Naringinase): 0%
- inhibition at 1000 µg/mL (α-D-glucosidase [2]): 66%
- inhibition at 1000 µg/mL (α-D-glucosidase [3]): 0%
- Ave % inhibition (HCV): + (+: ≦19%)
- inhibition at 1000 µg/mL (α-D-mannosidase): 0%

SMILES: OC[C@@H]1NC[C@H](O)[C@@H]1O [Compound 167, (2S,3R,4S)-2-(hydroxymethyl)pyrrolidine-3,4-diol]
- % inhibition β-glucosidase (β-D-glucosidase): 22%
- % inhibition β-galactosidase (β-D-galactosidase): 0%
- % inhibition N-acetyl-β-gluc [1]: 19%
- % inhibition Naringinase (Naringinase): 50%
- inhibition at 1000 µg/mL (α-D-glucosidase [2]): 58%
- inhibition at 1000 µg/mL (α-D-glucosidase [3]): 0%
- inhibition at 1000 µg/mL (α-D-mannosidase): 0%

SMILES: CC(O)[C@H](O)[C@H]1N[C@H](CO)[C@@H](O)[C@@H]1O (stereo partly drawn) [Compound 63, (2R,3R,4R,5R)-2-((1R)-1,2-dihydroxypropyl)-5-(hydroxymethyl)pyrrolidine-3,4-diol]
- % inhibition β-glucosidase (β-D-glucosidase): 93%
- % inhibition β-galactosidase (β-D-galactosidase): 93%
- % inhibition N-acetyl-β-gluc [1]: 0%
- % inhibition Naringinase (Naringinase): 0%
- inhibition at 1000 µg/mL (α-D-glucosidase [2]): 41%
- inhibition at 1000 µg/mL (α-D-glucosidase [3]): 0%
- Ave % inhibition (HCV): + (+: ≦19%)
- inhibition at 1000 µg/mL (α-D-mannosidase): 0%

SMILES: CC[C@@H](O)[C@H]1N[C@H](CO)[C@@H](O)[C@@H]1O [Compound 62, (2R,3R,4R,5R)-2-(hydroxymethyl)-5-((R)-1-hydroxypropyl)pyrrolidine-3,4-diol]
- % inhibition β-glucosidase (β-D-glucosidase): 100%
- % inhibition β-galactosidase (β-D-galactosidase): 100%
- % inhibition N-acetyl-β-gluc [1]: 20%
- % inhibition Naringinase (Naringinase): 37%
- inhibition at 1000 µg/mL (α-D-glucosidase [2]): 32%
- inhibition at 1000 µg/mL (α-D-glucosidase [3]): 0%
- Ave % inhibition (HCV): + (+: ≦19%)
- inhibition at 1000 µg/mL (α-D-mannosidase): 0%
